# Counter-ions that a name gives are not always drawn. Like-named read-outs stand apart in the source and are kept apart here.
# Columns and labels:
# eye [1] = assay: Topical instillation, ocular side effects / irritation in rabbits; assay type: in vivo, Dutch-belted rabbits
# Experimental: (§1) For rabbit experiments Dutch-belted rabbits of either sex weighing 1.5 to 2 kg were used for topical studies. Each animal was randomly assigned one eye for the experimental and the other for its control solution. Intraocular pressure was measured using a Digilab Pneumotonometer. Any animals showing asymmetry of intraocular pressure greater than 2 mm were excluded form the study.
# (§2) The protocol was as follows. Baseline intraocular pressure was taken in each eye using 0.5% proparacaine hydrochloride for topical anesthesia. […] In a half hour this was repeated. Two hours later intraocular pressure was measured in each eye. In some animals intraocular pressure was also measured five hours later and all animals had measurement of intraocular pressure the following day.
# (§3) Ethacrynic acid powder was dissolved in 3% methylcellulose to yield the desired concentration. […] The solution was refrigerated over night to yield a transparent, viscous fluid. The pH of the solution was determined by mixing one part of the control or experimental solution with five parts of distilled water. […] The 3% methylcellulose solution was refrigerated when not in use.
# (§4) Experiments similar to those described above have also been performed using two esters of ethacrynic acid, RCOOCH2 CH2 N(CH2 CH3)2 (hereinafter "ester A") and RCOOCH2 CH2 CH2 N(CH2 CH3)2 (hereinafter "ester B"), where R is [2,3-dichloro-4-(2-methylene-1-oxobutyl)phenoxy]acetate.
# (§5) In all these topical experiments 2 drops of the agent were given 5 minutes apart and control eyes were fully sham manipulated. […] However, not all the animals were slit lamped.
# intraocular pressure [2] = assay: Topical instillation, intraocular pressure in rabbits; assay type: in vivo, Dutch-belted rabbits
# Experimental: as §1, §2, §3, §4, §5
# Solution stability = assay type: physicochemical
# Experimental: (§6) Each vial of ethacrynic acid contained ethacrynate sodium powder equivalent to 50 mg of ethacrynic acid. […] The powder was diluted with the above basic medium (Dulbecco's with added glucose) to yield the desired concentration. The solution was mixed at room temperature until dissolved, and the pH was determined (always 7.2) before use; the solution was filtered with a 0.2 micron filter (Nuclepore); this produced a solution which was stable for 24 hours.
# Ethacrynic acid powder was dissolved in 3% methylcellulose to yield the desired concentration. The solution was mixed at room temperature for one hour and was stable for 24 hours. A similar osmotically balanced control solution was prepared from methyl cellulose powder dissolved in distilled water using low heat for several hours. The solution was refrigerated over night to yield a transparent, viscous fluid. The pH of the solution was determined by mixing one part of the control or experimental solution with five parts of distilled water. The pH ranged between 6.2 and 6.5 for both the control and experimental solutions. The 3% methylcellulose solution was refrigerated when not in use.
# Water solubility = assay type: physicochemical
# monkey eye outflow = conditions: perfusion at 15 mm Hg and 22° C.; cited from earlier work
# [3] = system: calf eye outflow facility; conditions: perfusion at 15 mm Hg and 22° C.; cited from earlier work
# intraocular pressure [4] = assay: Topical application, intraocular pressure in the monkey; assay type: in vivo
# Experimental: as §4
# After topical application of 10 mM ester A, a reduction in intraocular pressure in the rabbit was observed. This was most apparent 24 hours after instillation ([…] intraocular pressure changing from 22±3 to 15±2 mm Hg; n=8). In all these topical experiments 2 drops of the agent were given 5 minutes apart and control eyes were fully sham manipulated. […] However, not all the animals were slit lamped.
# (§7) In the monkey, a significant pressure reduction 24 hours after application of 10 mM ester A was observed (control eyes changing from 17±3 to 21±2 mm Hg versus experimental eyes changing from 19±1 to 5±3 mm Hg; n=6). […] This was detected by flashlight examination and confirmed by slit lamp examination.
# cornea = assay: Topical application, corneal edema in the monkey (flashlight and slit lamp examination); assay type: in vivo
# Experimental: as §4, §7
# [5] = system: aqueous humor outflow (trabecular meshwork); assay: Two-step constant pressure perfusion of anterior chamber; aqueous humor outflow facility in cynomolgus monkeys in vivo; design: species or system cynomologous monkeys
# From the text: (§8) Ethacrynic acid (sodium salt) was used to increase aqueous humor outflow in cynomologous monkeys, as described below. Ethacrynic acid can be purchased from Merck, Sharp, and Dome, and is described in U.S. Pat. No. 3,255,241, hereby incorporated by reference. Ethacrynic acid has the chemical formula [2,3-dichloro-4-(2-methylene-1-oxobutyl) phenoxy] acetic acid. Any suitable analog described in U.S. Pat. No. 3,255,241 or its ester or amide derivative can also be used as described herein; for example, the following compounds may be used and are available from Allergan, Inc. (Irvine, Calif.), as indicated by the code number below the structure. [drawing 4]
# (§9) Each animal was randomly assigned one eye for the experimental and the other for its control perfusion. The animals were fasted the night before the experiment. They were anesthetized intramuscularly with Methohexital Sodium 15 mg/kg and Pentobarbital Sodium 35 mg/kg. Supplemental anesthesia as required was carried out with Pentobarbital 10 mg/kg/hour. Needles were placed through the cornea into the anterior chamber and a two-step constant pressure perfusion method was performed in order to determine aqueous humor outflow facility. The basic medium for perfusion was Dulbecco's phosphate buffered saline with added 5.5 mM glucose. A 10 microliter bolus of the experimental or control solution (that would produce the desired final concentration in the anterior chamber) was injected through a T shaped connector piece in the infusion line.
# as §6
# The control solution was composed of 9.5 mg sodium chloride (to osmotically balance the experimental solution), 62.5 mg mannitol and 0.1 milliliter thimerosol dissolved in Dulbecco's phosphate buffered saline with 5.5 mM added glucose to yield the desired concentration.
# (§10) During perfusion experiments, a 10 microliter bolus injection was made using a Hamilton syringe. Since the monkey anterior chamber is approximately 200 microliters, 10 microliters of 10 mM ethacrynic acid was infused to achieve a final concentration of 0.5 mM ethacrynic acid.
# […] There were at least three animals and separate experiments carried out for each of the concentrations 0.1 MM, 0.25 mM, and 0.5 mM.
# eye [6] = assay: Ocular changes and intraocular pressure after perfusion in monkeys; assay type: in vivo, cynomologous monkeys
# From the text: as §8, §9, §6, §10
# Experiments were carried out using final ethacrynic acid concentrations in the aqueous humor of 0.1 mM to 0.5 mM. There were at least three animals and separate experiments carried out for each of the concentrations 0.1 MM, 0.25 mM, and 0.5 mM.
smiles,measurement,setting,value
"C=C(CC)C(=O)c1ccc(OCC(=O)OCCCN(CC)CC)c(Cl)c1Cl [ester B, RCOOCH2 CH2 CH2 N(CH2 CH3)2]",signs of irritation,"eye [1]; 10 mM ester B, at 24 hours",only minimal if any signs of irritation
same,slit lamp observation of ocular inflammation,"eye [1]; 10 mM ester B, at 24 hours",no slit lamp observations of ocular inflammation
same,"intraocular pressure, experimental eyes","intraocular pressure [2]; 10 mM ester B, 24 hours, from 23±3, control eyes 24±2 to 24±2, n=5",15±3 mm Hg
C=C(CC)C(=O)c1ccc(OCC(=O)O)c(Cl)c1Cl [sodium salt of ethacrynic acid],stability of solution,"Solution stability; Dulbecco's phosphate buffered saline with 5.5 mM glucose, pH 7.2",24 h
same,solubility,Water solubility,~40 mM
"CCN1C(=O)C=CC1=O [NEM, N-ethylmaleimide]",outflow in the monkey eye,monkey eye outflow,increase in outflow
same,dosage producing a significant increase in the facility of outflow,[3],≥ 4.7 mM
"C=C(CC)C(=O)c1ccc(OCC(=O)OCCN(CC)CC)c(Cl)c1Cl [ester A, RCOOCH2 CH2 N(CH2 CH3)2]",pressure reduction,intraocular pressure [4]; 5 mM ester A,no pressure reduction was documented
same,"intraocular pressure, experimental eyes","intraocular pressure [4]; 10 mM ester A, 24 hours, from 19±1, control eyes 17±3 to 21±2, n=6",5±3 mm Hg
same,corneal edema,cornea; 5 mM ester A,corneal edema was likewise apparent
same,corneal edema,cornea; 10 mM ester A,significant corneal edema was also observed in over half of the monkeys
same,resolution of corneal edema,"cornea; ester A topical, all animals",corneal edema ultimately resolved in all animals
same,irritation,"eye [1]; 5 mM ester A, two rabbits",minimal if any irritation
same,anterior chamber inflammation,eye [1]; 10 mM ester A,No anterior chamber inflammation was observed
same,clearing of external irritation of the lid,eye [1]; 10 mM ester A,24 h
same,"irritation of eyelid, conjunctiva, nictitating membrane",eye [1]; 10 mM ester A,Most of the animals demonstrated some irritation of the eyelid and a few to the conjunctiva and nictitating membrane
same,corneal changes,"eye [1]; 10 mM ester A, not all animals slit lamped",no corneal changes were observed
same,intraocular pressure,"intraocular pressure [2]; 10 mM ester A, 24 hours after instillation, from 22±3, n=8, printed as control eye",15±2 mm Hg
"C=C(CC)C(=O)c1ccc(OCC(=O)O)c(Cl)c1Cl [ethacrynic acid, [2,3-dichloro-4-(2-methylene-1-oxobutyl)phenoxy] acetic acid]",conjunctival side effect,eye [1]; 5 mM topical,slight conjunctival infection
same,other side effects,eye [1]; 5 mM topical,no other side effects noted
same,conjunctival side effect and irritation,eye [1]; 10 mM topical,moderate conjunctival infection and signs of irritation
same,resolution of corneal toxicity and inflammation,eye [1]; higher concentrations (above 10 mM),resolved without apparent sequelae
same,corneal toxicity and anterior chamber inflammation,"eye [1]; higher concentrations (above 10 mM), for several days",signs of corneal toxicity (corneal edema) and anterior chamber inflammation were apparent for several days
same,response in outflow facility,[5]; 0.25 mM,approximately half the animals perfused responded with a substantial increase in outflow facility
same,mean increase in fluid outflow facility,"[5]; 0.5 mM final concentration in anterior chamber, control perfused eye no change",140%
same,increase in outflow facility,"[5]; 1.0 mM, one animal, 18% increase in control eye",355%
same,effect on outflow facility,[5]; lower dosages (below 0.25 mM),no effect
same,stability of solution,Solution stability,24 h
same,"intraocular pressure, treated eye","intraocular pressure [2]; 5 mM in 3% methylcellulose, 2 hours, from 22.4 baseline, control eye 21.5 to 23.1, n=8, p less than 0.01",19.6 mm Hg
same,"intraocular pressure, treated eye","intraocular pressure [2]; 5 mM in 3% methylcellulose, next day, control eye 22.7",22.4 mm
same,"intraocular pressure, treated eye","intraocular pressure [2]; 10 mM and 3% methylcellulose, 24 hours, from 23.0 baseline, control eye 22.9 to 24.2, n=14, p less than 0.001",20.0 mm Hg
same,intraocular pressure after perfusion,eye [6]; a few days after the perfusion experiments,symmetrical and normal in both eyes
same,dilated pupil,"eye [6]; dosages above 0.25 mM, treated eye",some of the animals developed a dilated pupil
same,"chronic corneal edema, opacities or cataract formation",eye [6]; perfusion,no chronic corneal edema or opacities or cataract formation
same,corneal or crystalline lens changes,eye [6]; perfusion,no apparent corneal or crystalline lens changes
